Experimental data taken from US7858637B2, “Administration of TLR7 ligands and prodrugs thereof for treatment of infection by hepatitis C virus” (priority 2003, dated 2010).
“Also recorded” adds a separate entry of the source.

Key:
interferon alpha = assay: Interferon alpha plasma concentrations in mice; type: in vivo, mouse; conditions: for Mu-IFN-α plasma concentration, mean / Mu-IFN-α plasma concentration, individual value: mice, two oral 50 mg/kg doses 4 hours apart
Excerpt: Not only can one measure the plasma concentrations of isatoribine arising from oral administration of the said prodrug(s) but also the extensive immunological research conducted in the mouse has provided reagents suitable for measuring the levels of interferon alpha, a cytokine of interest reflecting one of the desired biologic activities of isatoribine.

[1] = system: human peripheral blood mononuclear cells (PBMC); assay: PBMC assay of interferon alpha release (masking); type: cell-based; conditions: Homo sapiens, PBMC; Table 9; 100 μM; 24 hours exposure; same blood donor; read-out: Amount of INFa relative to that induced by isatoribine at 100 μM
Protocol: A typical experiment would use human peripheral blood mononuclear cells (PBMC) isolated from a healthy donor and placed in replicate cell culture wells; typically, 2×10^6 to 5×10^6 cells are placed in each well. The PBMC are incubated in the absence of test compounds at 37° C. in a humidified atmosphere containing 5% CO2 for 24 hours to allow stabilization to the culture conditions, and then 100 micromolar isatoribine, the TLR7 ligand and a corresponding TLR7 ligand prodrug are added to separate wells containing PBMC from the same donor; untreated controls are included. The concentrations of TLR7 ligand and TLR7 ligand prodrug may be varied to suit the particular experiment, and the PBMC cultures are then incubated at 37° C. in a humidified atmosphere containing 5% CO2 for a period of time ranging from two hours to 48 hours. Samples of cell culture supernate media are taken during the incubation. These are assayed for cytokine production by ELISA. Additionally the amount of TLR7 ligand and TLR7 ligand prodrug remaining at the end of the incubation may be assayed by LC-MS. Cytokine production is calculated relative to production in the isatoribine control, following subtraction of the cytokine production in untreated controls.
Thus, if the TLR7 ligand generates more interferon alpha (a conveniently measured cytokine) than does the corresponding TLR7 ligand prodrug after a similar duration of exposure and concentration, the TLR7 ligand prodrug may be deemed a “masked” TLR7 ligand prodrug.

[2] = oral dosing, data of Tables 15, 16 and 17

Nc1nc2c(sc(=O)n2[C@@H]2O[C@H](CO)[C@@H](O)[C@H]2O)c(=O)[nH]1 [Compound 21, 7-thia-8-oxoguanosine]
Mu-IFN-α plasma concentration, mean (interferon alpha; time 0.25 h (first dose)): 0.00 pg/mL
Mu-IFN-α plasma concentration, individual value (interferon alpha; time 0.25 h (first dose), listed as Isatoribine, 50 mg/kg): BQL^50 pg/mL; also recorded: BQL^25 pg/mL
Mu-IFN-α plasma concentration, individual value (interferon alpha; time 0.50 h (first dose)): BQL^25 pg/mL
Mu-IFN-α plasma concentration, mean (interferon alpha; time 0.50 h (first dose)): 0.00 pg/mL
Mu-IFN-α plasma concentration, individual value (interferon alpha; time 1.00 h (first dose)): BQL^25 pg/mL
Mu-IFN-α plasma concentration, mean (interferon alpha; time 1.00 h (first dose)): 0.00 pg/mL
Mu-IFN-α plasma concentration, mean (interferon alpha; time 1.50 h (first dose)): 0.00 pg/mL
Mu-IFN-α plasma concentration, individual value (interferon alpha; time 1.50 h (first dose), listed as Isatoribine, 50 mg/kg): BQL^100 pg/mL; also recorded: BQL^25 pg/mL
Mu-IFN-α plasma concentration, mean (interferon alpha; time 2.00 h (first dose)): 0.00 pg/mL
Mu-IFN-α plasma concentration, individual value (interferon alpha; time 2.00 h (first dose), listed as Isatoribine, 50 mg/kg): BQL^25 pg/mL; also recorded: BQL^75 pg/mL
Mu-IFN-α plasma concentration, individual value (interferon alpha; time 3.00 h (first dose)): BQL^25 pg/mL
Mu-IFN-α plasma concentration, mean (interferon alpha; time 3.00 h (first dose)): 0.00 pg/mL
Mu-IFN-α plasma concentration, individual value (interferon alpha; time 4.00 h (first dose)): BQL^25 pg/mL
Mu-IFN-α plasma concentration, mean (interferon alpha; time 4.00 h (first dose)): 0.00 pg/mL
Mu-IFN-α plasma concentration, individual value (interferon alpha; time 4.03 h (second dose)): BQL^25 pg/mL
Mu-IFN-α plasma concentration, mean (interferon alpha; time 4.03 h (second dose)): 0.00 pg/mL
Mu-IFN-α plasma concentration, individual value (interferon alpha; time 4.08 h (second dose)): BQL^25 pg/mL
Mu-IFN-α plasma concentration, mean (interferon alpha; time 4.08 h (second dose)): 0.00 pg/mL
Mu-IFN-α plasma concentration, individual value (interferon alpha; time 4.25 h (second dose)): BQL^25 pg/mL
Mu-IFN-α plasma concentration, mean (interferon alpha; time 4.25 h (second dose)): 0.00 pg/mL
Mu-IFN-α plasma concentration, mean (interferon alpha; time 4.50 h (second dose)): 0.00 pg/mL
Mu-IFN-α plasma concentration, individual value (interferon alpha; time 4.50 h (second dose), listed as Isatoribine, 50 mg/kg): BQL^50 pg/mL; also recorded: BQL^37.5 pg/mL
Mu-IFN-α plasma concentration, individual value (interferon alpha; time 5.00 h (second dose)): BQL^50 pg/mL
Mu-IFN-α plasma concentration, mean (interferon alpha; time 5.00 h (second dose)): 0.00 pg/mL
Mu-IFN-α plasma concentration, individual value (interferon alpha; time 5.50 h (second dose)): BQL^37.5 pg/mL
Mu-IFN-α plasma concentration, mean (interferon alpha; time 5.50 h (second dose)): 0.00 pg/mL
Mu-IFN-α plasma concentration, mean (interferon alpha; time 6.00 h (second dose)): 0.00 pg/mL
Mu-IFN-α plasma concentration, individual value (interferon alpha; time 6.00 h (second dose), listed as Isatoribine, 50 mg/kg): BQL^50 pg/mL; also recorded: BQL^41.3 pg/mL; also recorded: BQL^37.5 pg/mL
Mu-IFN-α plasma concentration, individual value (interferon alpha; time 7.00 h (second dose)): BQL^50 pg/mL
Mu-IFN-α plasma concentration, mean (interferon alpha; time 7.00 h (second dose)): 0.00 pg/mL
Mu-IFN-α plasma concentration, mean (interferon alpha; time 8.00 h (second dose)): 0.00 pg/mL
Mu-IFN-α plasma concentration, individual value (interferon alpha; time 8.00 h (second dose), listed as Isatoribine, 50 mg/kg): BQL^50 pg/mL; also recorded: BQL^25 pg/mL
mice with detectable interferon in their plasma (interferon alpha; [2]): 4 of the 114
proportion of mice exhibiting an interferon response (interferon alpha; [2]): 4%
Emax at 100 µM [1]: 100%
